Data taken from PMC5376326, “Inhibition of ANO1 by luteolin and its cytotoxicity in human prostate cancer PC-3 cells” (PLoS ONE, 2017).
Values joined by “and” are separate entries in the source; they are usually repeats but may differ in a detail not shown here. Equal entries are not always repeated.

How the values were obtained:
ANO1 [1] = molecular target: T1, ANO1 (Homo sapiens, UniProt Q5XXA6, DEL476-501); experiment: Apical membrane (short-circuit) current in ANO1-expressing FRT cells; type: cell-based; settings: for Block of ANO1 chloride channel current: pretreated 20 min, 100 μM ATP, FRT-ANO1 cells
T1 sequence (Q5XXA6 with tags, fused parts or gaps isoform Q5XXA6-5 DEL539-564): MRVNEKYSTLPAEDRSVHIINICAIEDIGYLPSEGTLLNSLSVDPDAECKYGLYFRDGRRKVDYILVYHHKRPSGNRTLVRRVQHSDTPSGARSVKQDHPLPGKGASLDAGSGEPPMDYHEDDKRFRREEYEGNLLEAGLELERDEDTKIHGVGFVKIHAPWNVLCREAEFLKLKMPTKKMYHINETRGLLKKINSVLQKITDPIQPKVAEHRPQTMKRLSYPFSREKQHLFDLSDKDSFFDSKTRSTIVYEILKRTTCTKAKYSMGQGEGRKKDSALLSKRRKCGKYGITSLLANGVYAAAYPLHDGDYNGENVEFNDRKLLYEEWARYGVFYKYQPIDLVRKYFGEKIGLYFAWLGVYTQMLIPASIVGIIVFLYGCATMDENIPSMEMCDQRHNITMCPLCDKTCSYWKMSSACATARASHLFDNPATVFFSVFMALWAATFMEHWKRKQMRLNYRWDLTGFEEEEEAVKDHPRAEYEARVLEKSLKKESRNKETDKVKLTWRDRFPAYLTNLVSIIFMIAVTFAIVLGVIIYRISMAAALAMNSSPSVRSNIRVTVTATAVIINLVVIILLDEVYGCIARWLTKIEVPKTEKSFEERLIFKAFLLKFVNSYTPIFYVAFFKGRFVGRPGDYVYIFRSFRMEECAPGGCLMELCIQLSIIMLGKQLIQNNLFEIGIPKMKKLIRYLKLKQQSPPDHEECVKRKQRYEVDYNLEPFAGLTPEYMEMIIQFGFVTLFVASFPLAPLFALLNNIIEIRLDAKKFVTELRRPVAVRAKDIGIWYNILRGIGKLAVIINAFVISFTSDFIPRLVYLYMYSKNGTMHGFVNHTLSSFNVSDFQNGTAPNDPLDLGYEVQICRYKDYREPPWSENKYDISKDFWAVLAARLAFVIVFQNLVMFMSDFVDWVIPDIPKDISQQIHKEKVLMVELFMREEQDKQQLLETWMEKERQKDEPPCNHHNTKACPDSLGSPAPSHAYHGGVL
Description: Snapwell inserts containing ANO1-expressing FRT cells were mounted in Ussing chambers (Physiologic Instruments, San Diego, CA). The basolateral bath was filled with HCO3^--buffered solution and the apical bath was filled with a half-Cl^- solution. The basolateral membrane was permeabilized with 250 μg/mL amphotericin B. The cells were bathed for a 20 min stabilization period and aerated with 95% O2 / 5%CO2 at 37°C. Luteolin and kaempferol were applied to the apical and basolateral bath solution and then ATP was added to the apical bath solution to induce intracellular calcium increase. Apical membrane currents were measured with an EVC4000 Multi-Channel V/I Clamp (World Precision Instruments, Sarasota, FL) and recorded using PowerLab 4/35 (AD Instruments, Castle Hill, Australia). Data were collected and analyzed with ADInstruments acquisition software Labchart Pro 7 software. The sampling rate was 4 Hz.

ANO1 [2] = molecular target: T2, ANO1 (Homo sapiens, UniProt Q5XXA6); experiment: YFP quenching assay of ANO1 activity in PC-3 cells; type: cell-based; settings: PC-3 cells expressing high levels of ANO1; indicated concentrations
T2 construct: PC-3 prostate cancer cells expressing high levels of ANO1 endogenously; endogenous in cells; host or cells: PC-3 cells (clones with high ANO1 expression; stably transfected only with the YFP halide sensor)
T2 sequence (Q5XXA6 1-986): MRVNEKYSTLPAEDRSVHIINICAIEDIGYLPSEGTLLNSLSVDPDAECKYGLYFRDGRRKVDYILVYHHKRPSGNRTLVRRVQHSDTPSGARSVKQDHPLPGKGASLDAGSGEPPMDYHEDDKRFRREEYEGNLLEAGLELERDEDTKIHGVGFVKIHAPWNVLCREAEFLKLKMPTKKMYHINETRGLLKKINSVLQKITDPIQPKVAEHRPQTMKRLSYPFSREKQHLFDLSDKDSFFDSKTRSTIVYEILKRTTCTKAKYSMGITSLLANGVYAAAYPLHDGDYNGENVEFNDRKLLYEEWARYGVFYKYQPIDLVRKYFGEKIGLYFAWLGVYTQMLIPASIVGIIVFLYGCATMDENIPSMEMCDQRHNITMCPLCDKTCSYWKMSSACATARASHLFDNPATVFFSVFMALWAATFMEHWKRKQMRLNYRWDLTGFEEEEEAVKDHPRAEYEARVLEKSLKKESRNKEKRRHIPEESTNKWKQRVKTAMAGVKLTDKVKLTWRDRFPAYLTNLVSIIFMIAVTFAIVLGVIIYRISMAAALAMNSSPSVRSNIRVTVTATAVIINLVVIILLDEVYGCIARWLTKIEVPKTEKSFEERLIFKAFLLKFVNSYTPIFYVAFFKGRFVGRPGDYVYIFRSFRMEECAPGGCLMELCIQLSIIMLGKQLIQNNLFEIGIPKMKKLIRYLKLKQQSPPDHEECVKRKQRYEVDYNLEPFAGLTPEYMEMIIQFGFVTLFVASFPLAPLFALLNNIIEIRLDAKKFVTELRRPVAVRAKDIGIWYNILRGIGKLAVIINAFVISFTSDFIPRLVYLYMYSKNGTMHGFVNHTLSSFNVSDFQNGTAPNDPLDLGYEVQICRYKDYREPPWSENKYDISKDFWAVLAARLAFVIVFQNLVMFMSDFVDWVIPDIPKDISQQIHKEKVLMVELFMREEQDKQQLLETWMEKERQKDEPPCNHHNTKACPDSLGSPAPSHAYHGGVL
Description: Initial iodide influx rate was determined from the initial slope of fluorescence decrease, by nonlinear regression, following infusion of iodide with ATP.

ANO1 [3] = experiment: Immunoblot of ANO1 protein levels in PC-3 cells; type: cell-based, human
Description: Immunoblotting was performed as described previously. FRT and PC-3 cells were lysed with cell lysis buffer (50 mM Tris-HCl (pH 7.4), 1% Nonidet P-40, 0.25% sodium deoxycholate, 150 mM NaCl, 1 mM EDTA, 1 mM Na3VO4, and protease inhibitor mixture). Whole cell lysates were centrifuged at 15,000 g for 10 min at 4°C to remove the cell debris, and supernatant protein was separated by 4–12% Tris-glycine precast gel (KOMA BIOTECH, Seoul, Korea) and then transferred onto PVDF membrane (Millipore, Billerica, MA). Membrane was blocked with 5% non-fat skim milk in Tris-buffered saline including 0.1% Tween 20 (TBST) for 1 hour at room temperature. The membrane was then incubated overnight with primary ANO1 antibody (1:500 dilution, ab64085; Abcam Inc., Cambridge, MA). After washing three times with TBST, the blot was further incubated for 60 min at room temperature with an anti-rabbit secondary antibody (Santa Cruz Biotechnology, CA). The membrane was then washed three times with TBST and then visualized using the ECL Plus western blotting detection system (GE Healthcare, NJ).

| SMILES | Block of ANO1 chloride channel current (ANO1 [1]; 10 μM) [%] | Block of ANO1 chloride channel current (ANO1 [1]; 30 μM) [%] | Block of ANO1 chloride channel current (ANO1 [1]; 100 μM) [%] | Inhibition of ANO1 activity (ANO1 [2]) | Effect on ANO1 protein levels (ANO1 [3]; PC-3 cells expressing high levels of ANO1, 24 hour, indicated concentrations) | Block of PAR2-AP-triggered ANO1 activation (ANO1 [1]; 100 μM, 20 min pretreatment, PAR2-AP 50 μM) | Inhibition of ATP-induced ANO1 activation (apical current) (ANO1 [1]; 100 μM, ATP 100 μM) | IC50 (ANO1 [1]; FRT cells expressing ANO1, activated by 100 μM ATP, read-out: IC50, ANO1 chloride current (apical membrane current)) | Reversibility of ANO1 inhibition (ANO1 [1]; after washing 3 times for 5 min each, re-activation by 50 μM PAR2-AP) | Decrease of ANO1 protein levels (ANO1 [3]; 10 μM, 24 hour, PC-3 cells expressing high levels of ANO1) [%] | Decrease of ANO1 protein levels (ANO1 [3]; 30 μM, 24 hour, PC-3 cells expressing high levels of ANO1) [%] | Time-dependent change of ANO1 protein levels (ANO1 [3]; 30 μM, PC-3 cells) |
| --- | --- | --- | --- | --- | --- | --- | --- | --- | --- | --- | --- | --- |
| O=c1c(O)c(-c2ccc(O)cc2)oc2cc(O)cc(O)c12 [Kaempferol] | 36.2 ± 3.0 | 55.0 ± 4.1 | 89.3 ± 2.0 | significantly inhibited | did not affect | – | – | – | – | – | – | – |
| O=c1cc(-c2ccc(O)c(O)c2)oc2cc(O)cc(O)c12 [luteolin] | – | – | – | potently inhibited | – | almost completely blocked | almost completely inhibited | 9.8 µM and 9.77 µM and ~10 µM | reversibly inhibited | 41.2 ± 1.5 | 63.1 ± 5.7 | significantly decreased in a time-dependent manner |
